Measured values reported in patent US9131689B2, “Use of a 1-N-(halo-3-pyridylmethyl)-N-methylamino-1-alkylamino-2-nitroethylene derivative for preparing a topical veterinary pharmaceutical composition for combating external parasites” (priority 2007, dated 2015).
Read-outs that look alike come from different tables or passages of the source.

Tests used:
Assay type in all cases: in vivo
Ctenocephalides felis [1] = experiment: Supplementary study of efficacy over time after weekly flea re-infestation of cats (Example 3)
Procedure: In this example, a comparative study of the efficacy, over time, of nitenpyram administered topically, alone or in combination with fipronil, compared with fipronil administered alone, against cat fleas, was carried out. It is the continuation of the study of example 1 using compositions A, B and C.
At a regular interval after the first administration (D=0), all the cats were infested with approximately 100 laboratory fleas, strain Ctenocephalides felis, of male or female gender. The re-infestations were thus carried out at D=7, D=14, D=21, D=28, D=35, D=42, D=49, D=56 and D=63. The fleas were then counted various times after application of the treatment (at 2, 4 and 12 hours after re-infestation at D=7, D=14, D=21 and D=28; at 4, 8 and 12 hours after re-infestation at D=35 and D=42; at 12, 24 and 48 hours after re-infestation at D=49; at 24 and 48 hours after re-infestation at D=56 and, finally, at 48 hours after re-infestation at D=63).
To do this, all the fleas present on an animal were harvested by combing the cat, and then counted after combing. The number of live fleas is thus determined. After each count, the live fleas are put back on the cat. […]

[2] = Comparative pharmacokinetics of nitenpyram administered orally and topically to cats (Example 4); conditions: for Tmax: read-out: Tmax: time at which the maximum concentration of nitenpyram in the plasma is observed; for AUC: read-out: AUCtot: area under the curve of the nitenpyram concentration over time determined between t0 and the final measurement; for half-life: read-out: Thalf: half-life time (converted); for Cmax: read-out: Cmax: maximum amount of nitenpyram in the plasma
Procedure: In this example, a comparative study of the pharmacokinetics of nitenpyram administered topically and orally to cats was carried out.
The cats used in this study were prepared under the same conditions as those described in example 1.
It was verified, beforehand, that no trace of nitenpyram was detected in the plasma of the cats.
Ten young adult cats weighing between 2 and 6 kg are divided up into two groups: • a first group of 5 cats (female) received a single topical administration on the back between the shoulder blades at the beginning of the study; the topical composition is a solution containing 10% of nitenpyram (100 mg of nitenpyram per ml) and the amount administered is 0.5 ml per cat. • a second group (4 females and one male) received a single oral administration of the commercial product Capstar® given at the beginning of the study. The Capstar® product is a tablet comprising 11.4 mg of nitenpyram.
Blood samples were taken regularly, and centrifuged at 3000 rpm for 10 minutes at 4° C., the pellet is removed and the plasma is recovered for analysis.
The plasma concentration of nitenpyram is determined by the UPLC-MS/MS (Ultra-Performance Liquid Chromatography coupled to tandem mass spectrometry) method on an Acquity BEH C18 column and a Waters Quattro Premier XE mass […].

Ctenocephalides felis [3] = experiment: Rapidity of action of topical compositions against flea infestation in cats (Example 1)
Procedure: In this example, a comparative study of the efficacy of nitenpyram (rapidity of action) administered topically, alone or in combination with fipronil, compared with fipronil administered alone, against cat fleas, was carried out.
It is a randomized, blind, controlled efficacy study carried out in parallel on 4 groups of six cats, according to the recommendations of the guidelines of the Committee for Veterinary Medicinal Products (CVMP): “Guidelines for the testing and evaluation of the efficacy of antiparasitic substances for the treatment and prevention of tick and flea infestations in dogs and cats”, EMEA/CVMP/005/00-FINAL-Rev.1.
The cats used in this study were male or female, adult domestic cats more than 6 months old, of mixed breeds, but mainly of short-hair European breed, weighing between 2 and 5 kg. […]
6 days before the beginning of the study (D=−6), all the cats were infested with approximately 100 laboratory fleas, strain Ctenocephalides felis, of male or female gender. The fleas were then counted on the day before the treatment (D=−1) and then at different times after application of the treatment (1, 4, 12 and 24 hours after treatment).
To do this, all the fleas present on an animal are harvested by combing the cat and then counting after combing. The number of live fleas is thus determined. […]

[4] = both sexes, in vivo, oral administration, Capstar tablet 11.4 mg nitenpyram
[5] = female, plasma, topical or ocular, 50 mg per cat, topical administration, 10% solution 0.5 ml per cat

With CCN(Cc1ccc(Cl)nc1)/C(=C/[N+](=O)[O-])NC [nitenpyram, (E)-N-(6-chloro-3-pyridylmethyl)-N-ethyl-N′-methyl-2-nitrovinylidenediamine] the “effect of topical administration on cat fleas” value (Ctenocephalides felis [1]) was “rapid and sustained lethal effect on cat fleas”, the Tmax ([2]; both sexes, cat, in vivo, oral administration, Capstar tablet 11.4 mg nitenpyram) was 1.3 h and the AUC [2, 4] was 76.8 µg·h/mL. It also gave a half-life [2, 4] of 9.8 h, a Cmax ([2]; both sexes, in vivo, po, 11.4 mg, oral administration, Capstar tablet 11.4 mg nitenpyram) of over 5.8 µg/mL and an AUC ([2]; female, in vivo, topical or ocular, 50 mg per cat, topical administration, 10% solution 0.5 ml per cat) of 86.4 µg·h/mL. For the same compound, the Cmax [2, 5] was 1.29 µg/mL, the half-life [2, 5] was 69.1 h and the Tmax [2, 5] was 15 h. The “tolerance of oral administration” value ([2]; oral, Capstar tablet) was “well tolerated”, the “half-life time administered topically relative to orally” value ([2]; topical vs oral) was “more than 7 times” and the “tolerance of topical administration” value ([2]; topical, 10% solution 0.5 ml per cat) was “well tolerated locally”. The “effect of topical administration on cat fleas” value (Ctenocephalides felis [3]) was “lethal effect on the cat fleas”.
